According to PubChem BioAssay AID256 (DTP/NCI, 2004):
Several values for one entry are separate records, joined by “and”; a condition that tells them apart may be missing. Equal entries are not always repeated. Toxic doses and inconclusive results are not listed. Rule for the calls: active = survival T/C of 150% or more; inactive = T/C below 125% in these data.

Tested on: CD2F1 mice, L1210 leukemia ip, survival T/C
Assay: NCI In Vivo Anticancer Drug Screen. Data for tumor model L1210 Leukemia (intraperitoneal) in CD2F1 (CDF1) mice
Conditions: higher = longer survival
How it was run: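 Each value reflects a quotient of treated over vehicle control outcomes in mice with a transplanted tumor.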

[1] = endpoint: mean survival time, dose: 5.0 mg/kg/injection, schedule: Q01DX009 (ip), vehicle: saline with Tween-80
[2] = endpoint: mean survival time, dose: 100.0 mg/kg/injection, schedule: Q04DX003 (ip), vehicle: Klucel (hydroxypropylcellulose) (HPC)
[3] = endpoint: mean survival time, dose: 100.0 mg/kg/injection, schedule: Q04DX003 (ip), vehicle: saline with Tween-80
[4] = endpoint: mean survival time, dose: 200.0 mg/kg/injection, schedule: Q04DX003 (ip), vehicle: saline with Tween-80

Measured: T/C

Cn1cc[n+](C)c1C(c1ccccc1)N1CCCCC1 (stereo not drawn)
inactive: endpoint: mean survival time, dose: 5.0 mg/kg/injection, schedule: Q01DX001 (ip), vehicle: saline with Tween-80 106 % of control | [1] 94 % of control | endpoint: mean survival time, dose: 10.0 mg/kg/injection, schedule: Q01DX001 (ip), vehicle: saline with Tween-80 96 % of control | endpoint: mean survival time, dose: 10.0 mg/kg/injection, schedule: Q01DX009 (ip), vehicle: saline with Tween-80 100 % of control | endpoint: mean survival time, dose: 20.0 mg/kg/injection, schedule: Q01DX001 (ip), vehicle: saline with Tween-80 102 % of control | endpoint: mean survival time, dose: 20.0 mg/kg/injection, schedule: Q01DX009 (ip), vehicle: saline with Tween-80 98 % of control

CCCCCCCCCC(=O)N(C)C
inactive: endpoint: mean survival time, dose: 75.0 mg/kg/injection, schedule: Q01DX001 (ip), vehicle: saline 98 % of control | endpoint: mean survival time, dose: 150.0 mg/kg/injection, schedule: Q01DX001 (ip), vehicle: saline 104 % of control

O=c1[nH]ccn1C1CCCCC1
inactive: endpoint: mean survival time, dose: 50.0 mg/kg/injection, schedule: Q01DX001 (ip), vehicle: other 100 % of control | endpoint: mean survival time, dose: 100.0 mg/kg/injection, schedule: Q01DX001 (ip), vehicle: other 96 % of control and 97 % of control | endpoint: mean survival time, dose: 200.0 mg/kg/injection, schedule: Q01DX001 (ip), vehicle: other 97 % of control and 100 % of control

O=C(O)c1cccc2ccc(Br)cc12
inactive: endpoint: median survival time, dose: 50.0 mg/kg/injection, schedule: Q04DX002 (ip), vehicle: saline with Tween-80 100 % of control | endpoint: median survival time, dose: 100.0 mg/kg/injection, schedule: Q04DX002 (ip), vehicle: saline with Tween-80 100 % of control | endpoint: median survival time, dose: 200.0 mg/kg/injection, schedule: Q04DX002 (ip), vehicle: saline with Tween-80 111 % of control

O=C1C=CC(=O)N1c1ccc(O)cc1
inactive: endpoint: mean survival time, dose: 1.25 mg/kg/injection, schedule: Q01DX009 (ip), vehicle: saline with Tween-80 100 % of control | endpoint: mean survival time, dose: 2.5 mg/kg/injection, schedule: Q01DX009 (ip), vehicle: saline with Tween-80 98 % of control | [1] 93 % of control | endpoint: mean survival time, dose: 5.0 mg/kg/injection, schedule: Q04DX003 (ip), vehicle: saline with Tween-80 98 % of control

C(=N\Nc1nc2ccccc2s1)/c1ccncc1
inactive: [2] 90 % of control | endpoint: mean survival time, dose: 200.0 mg/kg/injection, schedule: Q04DX003 (ip), vehicle: Klucel (hydroxypropylcellulose) (HPC) 92 % of control | endpoint: mean survival time, dose: 400.0 mg/kg/injection, schedule: Q04DX003 (ip), vehicle: Klucel (hydroxypropylcellulose) (HPC) 90 % of control

CCC12C=CCN3CCC4(c5cc(C6c7[nH]c8ccccc8c7CCN7CCCCC67)c(OC)cc5N(C)C4C(O)(C(=O)OC)C1OC(C)=O)C32 (stereo not drawn)
inactive: endpoint: mean survival time, dose: 0.06 mg/kg/injection, schedule: Q01DX009 (ip), vehicle: other 93 % of control | endpoint: mean survival time, dose: 0.13 mg/kg/injection, schedule: Q01DX009 (ip), vehicle: other 93 % of control | endpoint: mean survival time, dose: 0.25 mg/kg/injection, schedule: Q01DX009 (ip), vehicle: other 92 % of control | endpoint: mean survival time, dose: 0.5 mg/kg/injection, schedule: Q01DX009 (ip), vehicle: other 95 % of control | endpoint: mean survival time, dose: 1.0 mg/kg/injection, schedule: Q01DX009 (ip), vehicle: other 90 % of control | endpoint: mean survival time, dose: 2.0 mg/kg/injection, schedule: Q01DX009 (ip), vehicle: other 93 % of control | endpoint: mean survival time, dose: 4.0 mg/kg/injection, schedule: Q01DX009 (ip), vehicle: other 93 % of control

CC(C)CCCC(C)C1CCC2C3=CCC4CC(OC(=O)CCC(C)C)CCC4(C)C3CCC21C (stereo not drawn)
inactive: [3] 101 % of control | [4] 96 % of control | endpoint: mean survival time, dose: 400.0 mg/kg/injection, schedule: Q04DX003 (ip), vehicle: saline with Tween-80 104 % of control

O=S(=O)(/N=C1\C=CC=C\C1=N/S(=O)(=O)c1ccccc1)c1ccccc1
inactive: endpoint: mean survival time, dose: 100.0 mg/kg/injection, schedule: Q01DX009 (ip), vehicle: saline with Tween-80 95 % of control | endpoint: mean survival time, dose: 200.0 mg/kg/injection, schedule: Q01DX009 (ip), vehicle: saline with Tween-80 92 % of control | endpoint: mean survival time, dose: 400.0 mg/kg/injection, schedule: Q01DX009 (ip), vehicle: saline with Tween-80 98 % of control

CCS(=O)(=O)/C=C(\C#Cc1ccccc1)c1ccccc1
inactive: endpoint: mean survival time, dose: 50.0 mg/kg/injection, schedule: Q01DX009 (ip), vehicle: saline 90 % of control | endpoint: mean survival time, dose: 100.0 mg/kg/injection, schedule: Q01DX009 (ip), vehicle: saline 91 % of control | endpoint: mean survival time, dose: 100.0 mg/kg/injection, schedule: Q04DX003 (ip), vehicle: saline 102 % of control | endpoint: mean survival time, dose: 200.0 mg/kg/injection, schedule: Q01DX009 (ip), vehicle: saline 91 % of control | endpoint: mean survival time, dose: 200.0 mg/kg/injection, schedule: Q04DX003 (ip), vehicle: saline 102 % of control | endpoint: mean survival time, dose: 400.0 mg/kg/injection, schedule: Q04DX003 (ip), vehicle: saline 98 % of control

CC[n+]1ccc(Cc2ccc([N+](=O)[O-])cc2)cc1
inactive: [2] 105 % of control

O=c1[nH]c2ccc(Br)cc2c2ccccc12
inactive: endpoint: mean survival time, dose: 100.0 mg/kg/injection, schedule: Q01DX001 (ip), vehicle: saline 90 % of control | endpoint: mean survival time, dose: 200.0 mg/kg/injection, schedule: Q01DX001 (ip), vehicle: saline 94 % of control | endpoint: mean survival time, dose: 400.0 mg/kg/injection, schedule: Q01DX001 (ip), vehicle: saline 100 % of control

CC(=O)CC(C)=O.CC(=O)CC(C)=O.CC(=O)CC(C)=O.CC(=O)CC(C)=O.[Hf]
inactive: [3] 86 % of control | [4] 94 % of control

O=c1oc(-c2cccc([N+](=O)[O-])c2)nc2ccccc12
inactive: [3] 100 % of control | [4] 88 % of control
